Reference: article PMC6366974, “The curcumin analog EF24 is a novel senolytic agent” (Aging (Albany NY), 2019)

Assays:
cancer cells = system: cancer cells; design: method as in PMID 15210154; conditions: more potent than curcumin; cited from earlier work
[1] = system: BCL-XL, MCL-1 and BCL-2 mRNA; assay: qPCR of mRNA levels in WI-38 cells; type: cell-based, human; conditions: WI-38 NCs and IR-SCs, 72 h
Description: The mRNA levels were measured with qPCR, as previously described. qPCR was run with TaqMan qPCR (Cat. No. 4444965, Thermo Fisher Scientific, Waltham, MA, USA) reagents and primers (Cat. No. 4331182, Thermo Fisher Scientific, Waltham, MA, USA).

Bcl-2 = assay: Western blotting of protein expression in WI-38 cells; type: cell-based, human; conditions: WI-38 IR-SCs, 0.5, 1 and 2 µM, 72 h; did not reach statistical significance
Description: (§1) After treatment with vehicle or EF24 at 0.5, 1 and 2 µM for 72 h, WI-38 NCs or IR-SCs were harvested in 1.5mL microcentrifuge tubes, and lysed in RIPA buffer with EDTA and EGTA (Cat. No. BP-115DG, Boston BioProducts, Ashland, MA, USA) supplemented with 1% protease inhibitor cocktail (Cat. No. P8340, Sigma-Aldrich, St. Louis, MO, USA) and 1% phosphatase inhibitor cocktail (Cat. No. P0044, Sigma-Aldrich, St. Louis, MO, USA). An equal amount of protein (30 µg/lane) from each cell extract was resolved on a precast gel (Mini-PROTEAN TGX™, Cat. No. 456-1094, Bio-Rad, Hercules, CA, USA). Proteins were blotted to a precut 0.2 µm PVDF membrane (Invitrolon™, Cat. No. LC2002, Life Technologies, Carlsbad, CA, USA) by electrophoresis. The membranes were blocked with 1X TBS-Tween (TBST, Cat. No. J77500, Affymetrix, Santan Clara, CA, USA) containing 5% non-fat dry milk (Cat. No. sc-2324, Santa Cruz Biotechnology, Dallas, TX, USA), and subsequently probed with primary antibodies at a predetermined optimal concentration overnight at 4°C. The primary antibodies including Bcl-xl (Cat. No. 2762), Mcl-1 (Cat. No. 5453), and Bcl-2 (Cat. No. 2872) and β-actin (Cat. No. 4970) were purchased from Cell Signaling Technology (Danvers, MA, USA). After washing with TBST for 3 times (10 min each time), the membranes were incubated with the secondary horse radish peroxidase (HRP)-linked antibody (Cat. No. 7074, Cell Signaling Technology, Danvers, MA, USA) for 2 h at room temperature. Following sufficient washing with TBST, the membranes were incubated with chemiluminescent HRP substrate (Immobilon™ Western, Cat. No. P36599, MilliporeSigma, Billerica, MA, USA) that consists of equal volume of luminol reagent and peroxide solution. The blotting membranes were recorded using autoradiography (SRX-101, Konica, Shinjuku, Tokyo, Japan). For the proteasome inhibition experiment, IR-SCs were treated with vehicle (0.1% DMSO) or 1 µM MG132 (Cat. No. S2619, Selleckchem, Houston, TX, USA) for 1 h prior to the incubation with EF24 at 0, 0.5, 1 and 2 µM for 72h.

Mcl-1 = assay: as above; type: cell-based, human; conditions: WI-38 IR-SCs, 0.5, 1 and 2 µM, 72 h
Description: as §1

Bcl-xl = assay: as above; type: cell-based, human; conditions: 72 h
Description: as §1

HUVEC IR-SCs = assay: Cell viability assay (flow cytometry, PI); type: cell-based; conditions: Homo sapiens, 72 h
WI-38 IR-SCs = assay: Combination treatment cell viability and coefficient of drug interaction (CDI); type: cell-based, human; conditions: 72 h
Description: Number of viable cells were quantified using flow cytometry as previously described with slight modifications. Specifically, NCs and SCs were incubated with vehicle (0.1% DMSO) or a test compound at indicated concentrations for 72 h. Following dissociation with 0.25% Trypsin-EDTA (Cat. No. 25200056, Thermo Fisher Scientific, Waltham, MA, USA) at 37°C for 5 min, the cells were harvested in 100 µl pre-cooled phosphate buffered saline (PBS, Cat. No. 20012027, Thermo Fisher Scientific, Waltham, MA, USA) containing 2% FBS and 100 ng/mL propidium iodide (PI, P4170, Sigma-Aldrich, St. Louis, MO, USA) and analyzed using flow cytometry (LSR II, BD Biosciences, San Jose, CA, USA). Percentage of viable cells were determined by counting the number of PI negative cells (viable cells) and then calculated as a ratio of control cells treated with vehicle. In addition, dose-response curves were generated for each compound, and the concentration for 50% of maximal effect (EC50 values) was calculated using GraphPad Prism 6.
The data were analyzed by analysis of variance (ANOVA) with GraphPad Prism 6 (GraphPad Software, La Jolla, CA, USA). […] To detect the synergistic senolytic activities of EF24 and ABT263, CDI was calculated as previously described.

pre-adipocytes IR-SCs = assay: Cell viability assay (flow cytometry, PI); type: cell-based; conditions: Homo sapiens; Pre-adipocyte, 72 h

SMILES: O=C1/C(=C/c2ccccc2F)CNC/C1=C\c1ccccc1F [EF24]
- potency in inducing cancer cell death relative to curcumin (cancer cells): 10 fold
- BCL-XL, MCL-1 and BCL-2 mRNA levels [1]: did not observe any significant changes
- levels of Bcl-2 in IR-SCs (Bcl-2): slightly reduced
- expression of Mcl-1 in IR-SCs (Mcl-1): significantly reduce
- expression of Bcl-xl in IR-SCs (Bcl-xl; WI-38 IR-SCs, 0.5, 1 and 2 µM): significantly reduce
- expression of Bcl-xl in NCs (Bcl-xl; WI-38 NCs, 0.5, 1 and 2 µM): not in NCs
- EC50 (HUVEC IR-SCs): 2.09 µM
- cell viability of IR-SCs, agent alone (WI-38 IR-SCs): dose-dependently reduce
- EC50 (pre-adipocytes IR-SCs): 5.04 µM
